Measurements taken from patent US20090239916A1, “NOVEL DRUG DISCOVERY TARGET AND MEDICINE ACTING ON THE SAME” (Reverse Proteomics Research Institute Co., Ltd, priority 2004, published 2009).
Structures can show the parent of a compound that is named as a salt.

Assays:
recombinant MFP-2 = target: T1, recombinant MFP-2 (Homo sapiens, UniProt P51659); experiment: Measurement of Kd value between MFP-2 and Intal using Biacore; type: binding; settings: Biacore 3000; Intal-immobilized gold chip; MFP-2 25, 12.5 and 6.25 nM; global fitting
T1 construct: His-tag (N); made in house; host or cells: E. coli (pDEST17, GATEWAY system)
T1 sequence (P51659 1-736): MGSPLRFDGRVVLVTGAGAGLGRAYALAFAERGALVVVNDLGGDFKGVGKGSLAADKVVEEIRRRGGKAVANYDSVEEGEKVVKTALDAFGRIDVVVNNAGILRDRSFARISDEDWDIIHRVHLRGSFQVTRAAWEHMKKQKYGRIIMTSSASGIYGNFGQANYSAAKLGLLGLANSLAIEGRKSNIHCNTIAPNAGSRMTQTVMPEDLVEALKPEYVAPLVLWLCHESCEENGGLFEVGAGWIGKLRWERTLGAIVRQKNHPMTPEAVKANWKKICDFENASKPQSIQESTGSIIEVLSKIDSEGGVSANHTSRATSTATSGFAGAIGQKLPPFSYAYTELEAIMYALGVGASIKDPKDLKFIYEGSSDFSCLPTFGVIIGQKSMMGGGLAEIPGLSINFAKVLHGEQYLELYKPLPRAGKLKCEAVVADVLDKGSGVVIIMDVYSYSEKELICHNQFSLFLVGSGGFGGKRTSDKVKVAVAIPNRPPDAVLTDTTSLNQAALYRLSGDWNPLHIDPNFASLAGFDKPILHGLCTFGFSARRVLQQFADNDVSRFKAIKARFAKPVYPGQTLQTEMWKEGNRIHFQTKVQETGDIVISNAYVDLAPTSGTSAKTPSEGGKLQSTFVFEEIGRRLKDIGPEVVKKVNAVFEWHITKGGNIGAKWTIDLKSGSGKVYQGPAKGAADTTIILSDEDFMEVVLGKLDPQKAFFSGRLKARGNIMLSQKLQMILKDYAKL
Experimental: The SIA kit Au from Biacore Company (#BR-1004-05) was immersed in Piranha solution (25% H2O2, 75% H2SO4) in a glass dish, and washed with shaking for 3 hours. Next, this chip was washed with Milli-Q Water and ethanol, and allowed to stand overnight as immersed in an ethanol solution (1.5 mM) of 11-amino-1-undecanethiol hydrochloride (Dojindo, #A423). After this was washed with N-methylpyrrolidone (NMP), it was placed in an NMP solution containing N-Fmoc-amido-dPEG4™-acid (50 mM), PyBop (50 mM) and diisopropylethylamine (Pr2Net; 100 mM) and shaken for 16 hours to cause the reaction. After the mixture was washed with NMP, the reaction was allowed to proceed in an acetonitrile (MeCN) solution containing acetic acid (10 mM), HOBt (10 mM) and WSCI (water-soluble carbodiimide; 10 mM) for 5.5 hours. […]
An entry vector was prepared using the GATEWAY system from Invitrogen Company, and recombinant MFP-2 was expressed as a protein with N-terminal His-tag using an E. coli expression system (pDEST17). […]
The Kd value was measured using Biacore 3000. […]
After data were measured, differences from the control were determined using analytical software (BIACORE Company, BIA evaluation ver 4.1) and analyzed by global fitting to calculate the Kd value. As a result, the value was determined to be 0.64 nM.

MFP-2 = target: T2, MFP-2 (Rattus norvegicus, UniProt P97852); experiment: Binding experiments: compound-immobilized resins with rat brain lysate, SDS-PAGE and MALDI-TOF identification; settings: first vs second binding experiment with fresh resin, SDS gel
T2 construct: The supernatant thus obtained was used as the lysate; from tissue; host or cells: rat brain
T2 sequence (P97852 1-735): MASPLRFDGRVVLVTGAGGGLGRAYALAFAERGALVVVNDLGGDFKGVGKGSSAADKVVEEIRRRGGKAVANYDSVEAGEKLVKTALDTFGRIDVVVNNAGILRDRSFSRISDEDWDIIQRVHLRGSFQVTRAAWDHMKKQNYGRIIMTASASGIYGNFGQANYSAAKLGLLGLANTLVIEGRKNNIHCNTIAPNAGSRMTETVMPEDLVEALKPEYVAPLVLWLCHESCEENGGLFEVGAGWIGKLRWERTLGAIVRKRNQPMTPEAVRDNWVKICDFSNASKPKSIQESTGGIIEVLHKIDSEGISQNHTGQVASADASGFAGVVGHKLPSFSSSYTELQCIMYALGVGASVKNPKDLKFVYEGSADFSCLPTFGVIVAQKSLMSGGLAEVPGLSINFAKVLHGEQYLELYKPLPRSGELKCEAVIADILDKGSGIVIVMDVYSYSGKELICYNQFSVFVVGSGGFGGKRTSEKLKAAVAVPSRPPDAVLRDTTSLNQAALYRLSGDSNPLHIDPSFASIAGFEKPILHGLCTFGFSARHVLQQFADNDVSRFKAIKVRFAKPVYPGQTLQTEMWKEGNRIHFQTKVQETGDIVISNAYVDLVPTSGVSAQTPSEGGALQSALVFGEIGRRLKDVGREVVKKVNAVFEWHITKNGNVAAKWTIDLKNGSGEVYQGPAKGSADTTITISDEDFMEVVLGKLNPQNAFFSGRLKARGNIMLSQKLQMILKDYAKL
Experimental: The rat brain (2.4 g) was mixed in a mixed solution A (25 mM Tris-HCl pH 8.0, 0.5% Tween 20, 300 μM DCC (24 ml; N,N-diethyldithiocarbamate sodium)) and prepared as a homogenate, which was then centrifuged at 9,000 rpm for 10 minutes. The centrifugal supernatant was collected and further centrifuged at 50,000 rpm for 30 minutes. The supernatant thus obtained was used as the lysate. Note that all experiments were performed at 4° C. or on ice.
Binding experiments were performed using the immobilizing resins with each test compound immobilized thereon, prepared in Examples 1 to 2, and the rat brain lysate prepared in Example 3(1), per the procedures shown below.
Each resin (10 μl) and lysate (1 ml) were gently shaken at 4° C. for about 1 hour. Thereafter, centrifugal operation was performed, and each supernatant was collected carefully. Then, each supernatant was again mixed with a fresh compound-bound resin (10 μl). At this time, the separated compound-bound resin was gently stored at 4° C. as the resin of the first binding experiment. After the mixture was gently stirred for about 1 hour, centrifugal operation was performed, and the supernatant was removed. […] The sample solution thus obtained was separated using a commercially available SDS gel (BioRad readyGel J, 10% SDS, cat. NO=161-J341), and the SDS gel was analyzed (FIG. 2). […]

| Kd (recombinant MFP-2) | binding of MFP-2 to the compound-immobilized resin (MFP-2) | SMILES |
| --- | --- | --- |
| 0.64 nM | specific binding | O=C(O)c1cc(=O)c2c(OCC(O)COc3cccc4oc(C(=O)O)cc(=O)c34)cccc2o1 [Intal, disodium salt of 1,3-bis(2-carboxychromon-5-yloxy)-2-hydroxypropane] |
|  | specific binding | O=C(Cn1c(=O)sc2ccc(Cl)cc21)N1CCN(CCO)CC1 [tiaramide] |
